Columns and labels:
[1] = hygroscopicity of the salts; type: physicochemical; conditions: crystal form / solid salt
Text: (§1) Acid addition salts of the first aspect are well-suited to pharmaceutical formulation as either solution or solid dosage forms. […] It has been shown that these particular salts are also non-hygroscopic and this remains unchanged when stored in a humid environment. The lower hygroscopicity is a further advantage for processing and storing such acid addition salts.

[2] = physchem; type: physicochemical; conditions: 24 °C; water at 24±3° C.
Text: as §1

[3] = test system: tubulin; test: inhibition of tubulin polymerisation; type: biochemical; conditions: read-out: inhibits tubulin polymerisation, IC50
Text: One pharmacologically important mechanism of inhibiting cellular proliferation is by means of binding tubulin. Tubulin is an asymmetric dimer composed of alpha and beta subunits, that polymerizes to form structural components of the cytoskeleton called microtubules. Microtubules must be highly dynamic in order to carry out many of their functions. At certain stages of the cell cycle, or in particular cell types or organelles, stable microtubules are required, such as for transport within axons or for ciliary and flagellar movement. Micro-tubules assemble during the G2 phase of the cell cycle, and participate in the formation of the mitotic spindle which facilitates the segregation of sister chromatids during the process of cell division. The essential role of microtubules in cell division and the ability of drugs that interact with tubulin to interfere with the cell cycle have made tubulin a successful target for applications that include anti-cancer drugs, fungicides, and herbicides.
The compound of formula I, and by analogy its acid addition salts, inhibits tubulin polymerisation with an IC50 of 3 μM. […] The inhibition of tubulin polymerisation makes a compound of formula I suitable for the treatment of cancer, viral and bacterial infections, vascular restenosis, inflammatory diseases, autoimmune diseases, and psoriasis.

[4] = test system: in vivo tumour models; test: vascular targeting activity in in vivo tumour models

## CCC[C@H](Nc1nc(-c2ccc(NC(=O)NCC)c(OC)c2)ncc1C)c1cccnc1.O=C(O)CC(O)(CC(=O)O)C(=O)O [citrate salt, N-ethyl-N′-[2-methoxy-4-(5-methyl-4-{[(1S)-1-pyridin-3-ylbutyl]amino}pyrimidin-2-yl)phenyl]urea citrate salt]
[1]
  hygroscopicity: not hygroscopic
[2]
  solubility: > 2100 µg/mL

## CCC[C@H](Nc1nc(-c2ccc(NC(=O)NCC)c(OC)c2)ncc1C)c1cccnc1 [compound of formula I, N-ethyl-N′-[2-methoxy-4-(5-methyl-4-{[(1S)-1-pyridin-3-ylbutyl]amino}pyrimidin-2-yl)phenyl]urea]
[3]
  IC50: 3000 nM
[4]
  vascular targeting activity: displays vascular targeting activity

## CCC[C@H](Nc1nc(-c2ccc(NC(=O)NCC)c(OC)c2)ncc1C)c1cccnc1.CS(=O)(=O)O.CS(=O)(=O)O [di-methanesulfonate salt, N-ethyl-N′-[2-methoxy-4-(5-methyl-4-{[(1S)-1-pyridin-3-ylbutyl]amino}pyrimidin-2-yl)phenyl]urea di-methanesulfonate salt]
[1]
  hygroscopicity: not hygroscopic
[2]
  solubility: > 2100 µg/mL

## CCC[C@H](Nc1nc(-c2ccc(NC(=O)NCC)c(OC)c2)ncc1C)c1cccnc1.Cl.Cl [dihydrochloride salt, N-ethyl-N′-[2-methoxy-4-(5-methyl-4-{[(1S)-1-pyridin-3-ylbutyl]amino}pyrimidin-2-yl)phenyl]urea dihydrochloride salt]
[1]
  hygroscopicity: not hygroscopic
[2]
  solubility: > 2100 µg/mL

## CCC[C@H](Nc1nc(-c2ccc(NC(=O)NCC)c(OC)c2)ncc1C)c1cccnc1.O=C(O)C(=O)O [mono-oxalate salt, N-ethyl-N′-[2-methoxy-4-(5-methyl-4-{[(1S)-1-pyridin-3-ylbutyl]amino}pyrimidin-2-yl)phenyl]urea mono-oxalate salt]
[1]
  hygroscopicity: not hygroscopic
[2]
  solubility: > 2100 µg/mL

## CCC[C@H](Nc1nc(-c2ccc(NC(=O)NCC)c(OC)c2)ncc1C)c1cccnc1.O=C(O)C(O)C(O)C(=O)O [tartrate salt, N-ethyl-N′-[2-methoxy-4-(5-methyl-4-{[(1S)-1-pyridin-3-ylbutyl]amino}pyrimidin-2-yl)phenyl]urea tartrate salt]
[1]
  hygroscopicity: not hygroscopic
[2]
  solubility: > 2100 µg/mL
